Measured values taken from ChEMBL document CHEMBL1201862, “PubChem BioAssay data set” (2004).
Activity calls are given as the source filed them.

Experiments:
[1] = biological target: T1, Heat shock factor protein 1 (Mus musculus, UniProt P38532); experiment: enhancement of HSF1-driven luciferase signal – cell-based, NIH3T3, luminescence, dose retest, confirmation (AID 435004); format: functional;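 further: stress induced by proteasome inhibitor MG132 added 30 min after compound; luciferase reporter driven by HSF1 response element in NIH3T3 cells; actives raise luminescence as potentiators of the MG132 stress response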
T1 sequence (P38532 whole entry): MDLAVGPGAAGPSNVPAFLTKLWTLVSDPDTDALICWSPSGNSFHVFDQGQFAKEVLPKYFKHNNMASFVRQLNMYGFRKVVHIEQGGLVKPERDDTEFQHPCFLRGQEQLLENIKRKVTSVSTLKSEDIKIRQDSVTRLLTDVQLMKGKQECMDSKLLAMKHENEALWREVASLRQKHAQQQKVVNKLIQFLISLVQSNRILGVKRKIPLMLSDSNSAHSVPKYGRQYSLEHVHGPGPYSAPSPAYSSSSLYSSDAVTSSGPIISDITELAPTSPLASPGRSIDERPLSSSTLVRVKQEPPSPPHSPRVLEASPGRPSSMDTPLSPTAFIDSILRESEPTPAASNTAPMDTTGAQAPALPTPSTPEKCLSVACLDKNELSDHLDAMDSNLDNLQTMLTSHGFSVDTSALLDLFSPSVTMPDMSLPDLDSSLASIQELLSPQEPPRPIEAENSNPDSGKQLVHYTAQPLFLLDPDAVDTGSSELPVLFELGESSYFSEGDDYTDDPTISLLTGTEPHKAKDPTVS

[2] = Luminescence Cell-Based Dose Response HTS to Identify Activators of Luciferase Translation or Activity in H4 […] Cells. [Related pubchem assays: 1829 (Project Summary), 1814 (Primary HTS)]; format: functional
[3] = Luminescence Cell-Based Dose Confirmation HTS to Identify Activators of 5'UTR Stem-Loop Driven Alpha-Synuclein mRNA Translation in H4 Neuroglioblastoma Cells. [Related pubchem assays: 1829 (Project Summary), 1814 (Primary HTS)]; format: functional
H4 = experiment: Luminescence Cell-Based Dose Response HTS to Identify Activators of 5'UTR Stem-Loop Driven Prion Protein mRNA Translation in H4 Neuroglioblastoma Cells. [Related pubchem assays: 1829 (Project Summary), 1814 (Primary HTS)]; format: functional; conditions: Homo sapiens
[4] = biological target: T2, Calpain-2 catalytic subunit (Sus scrofa, UniProt P43367); experiment: m-calpain protease blockers, concentration series – biochemical, fluorogenic peptide substrate, dose response (AID 1420); format: functional
T2 sequence (P43367 whole entry): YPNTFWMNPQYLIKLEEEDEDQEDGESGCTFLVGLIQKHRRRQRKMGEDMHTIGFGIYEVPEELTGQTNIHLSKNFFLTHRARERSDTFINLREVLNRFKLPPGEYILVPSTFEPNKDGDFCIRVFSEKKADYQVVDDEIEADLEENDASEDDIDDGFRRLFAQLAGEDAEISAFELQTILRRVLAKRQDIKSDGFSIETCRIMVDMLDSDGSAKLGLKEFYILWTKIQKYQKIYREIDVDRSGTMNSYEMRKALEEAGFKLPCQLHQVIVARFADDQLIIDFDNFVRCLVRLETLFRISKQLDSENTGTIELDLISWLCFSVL

Protein skinhead-1 = biological target: T3, Protein skinhead-1 (Caenorhabditis elegans, UniProt P34707); format: functional
T3 sequence (P34707 whole entry): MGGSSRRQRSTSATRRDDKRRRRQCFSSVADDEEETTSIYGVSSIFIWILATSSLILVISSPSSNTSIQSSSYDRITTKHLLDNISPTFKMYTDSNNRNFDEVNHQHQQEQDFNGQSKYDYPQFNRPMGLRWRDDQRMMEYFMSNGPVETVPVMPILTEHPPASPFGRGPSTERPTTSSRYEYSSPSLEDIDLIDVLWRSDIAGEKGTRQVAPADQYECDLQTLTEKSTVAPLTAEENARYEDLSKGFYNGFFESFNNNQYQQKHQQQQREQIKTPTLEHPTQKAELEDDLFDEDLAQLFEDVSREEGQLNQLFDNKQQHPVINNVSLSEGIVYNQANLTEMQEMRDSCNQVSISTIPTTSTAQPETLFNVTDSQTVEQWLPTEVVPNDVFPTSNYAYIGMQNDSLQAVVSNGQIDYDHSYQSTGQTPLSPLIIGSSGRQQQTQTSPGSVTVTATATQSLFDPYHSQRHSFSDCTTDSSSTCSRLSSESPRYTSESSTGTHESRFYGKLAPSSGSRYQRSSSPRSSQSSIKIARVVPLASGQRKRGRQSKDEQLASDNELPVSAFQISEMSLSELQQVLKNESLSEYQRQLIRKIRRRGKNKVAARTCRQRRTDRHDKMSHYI

Cytochrome P450 3A4 = Cytochrome P450 3A4 (Homo sapiens, UniProt P08684);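 further: CYP3A4 tested as one member of a cytochrome P450 panel screen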
Cytochrome P450 2C9 = Cytochrome P450 2C9 (Homo sapiens, UniProt P11712)
[5] = Trypanosoma cruzi growth suppression in host cells – NIH3T3 host cells, beta-gal luminescence, confirmation (AID 2044); format: functional, cell-based;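 further: intracellular parasites grown in NIH/3T3 mouse fibroblasts as host cells; luminescent beta-galactosidase reporter signal from transgenic T. cruzi replicating inside host cells; inhibitors lower the luminescence signal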
[6] = NIH3T3 cell viability loss – ATP luminescence, mouse fibroblasts, counter-screen, dose response (AID 2010); format: functional, cell-based;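 further: cells exposed to compound for about 90 hours before reading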
[7] = fluconazole-exposed Candida albicans growth modulators – fluorescence, retest, confirmation (AID 2467); format: functional, cell-based
[8] = NIH-3T3 fibroblast cytotoxicity, dose response, cytotoxicity control, cell-based, fluorescence, Alamar Blue, secondary assay (AID 2327); format: functional;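 further: NIH-3T3 mouse fibroblasts cultured with fluconazole at 8 µg/mL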
[9] = Luminescence Cell-Based Dose Retest to Confirm Inhibitors of Cancer Stem Cells. [Related pubchem assays (depositor defined):AID2717, AID2721]; format: functional; conditions: Homo sapiens
[10] = viability of uninfected HEp-2 cells – cell-based, HTS, cytotoxicity control for RSV inhibitor project, dose response (AID 2410); format: functional; conditions: human respiratory syncytial virus
[11] = reduction of Shn3 3'UTR-driven luciferase in osteoblasts – cell-based, Clone20 osteoblasts, firefly luciferase, cherry-picked, dose response (AID 624132); format: functional;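 further: firefly luciferase luminescence from reporter carrying the Shn3 3'UTR in osteoblasts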
[12] = non-specific 3'UTR reporter inhibition in Clone20-Shn3RL – cell-based, Renilla luciferase, cherry-picked, counter-screen for Shn3 inhibitor project, dose response (AID 624133); format: functional
cells = format: functional
[13] = blockers of HIV-1 envelope-mediated cell-cell fusion – cherry-pick, dose response (AID 652057); format: functional, cell-based

Sequence of Cytochrome P450 3A4 (P08684 whole entry): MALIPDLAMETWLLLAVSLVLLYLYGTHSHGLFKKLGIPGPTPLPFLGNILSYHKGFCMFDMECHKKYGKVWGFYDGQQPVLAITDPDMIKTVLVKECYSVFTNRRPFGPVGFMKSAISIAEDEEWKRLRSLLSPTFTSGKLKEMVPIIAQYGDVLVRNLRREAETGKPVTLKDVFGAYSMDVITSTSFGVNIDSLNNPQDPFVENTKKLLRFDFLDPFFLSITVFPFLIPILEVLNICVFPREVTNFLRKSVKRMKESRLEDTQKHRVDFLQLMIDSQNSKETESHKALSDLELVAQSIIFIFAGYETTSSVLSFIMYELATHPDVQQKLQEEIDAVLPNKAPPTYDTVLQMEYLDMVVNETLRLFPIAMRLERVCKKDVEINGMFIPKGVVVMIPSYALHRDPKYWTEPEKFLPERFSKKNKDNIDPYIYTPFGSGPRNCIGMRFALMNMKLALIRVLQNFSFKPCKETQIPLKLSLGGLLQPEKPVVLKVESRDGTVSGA
Sequence of Cytochrome P450 2C9 (P11712 whole entry): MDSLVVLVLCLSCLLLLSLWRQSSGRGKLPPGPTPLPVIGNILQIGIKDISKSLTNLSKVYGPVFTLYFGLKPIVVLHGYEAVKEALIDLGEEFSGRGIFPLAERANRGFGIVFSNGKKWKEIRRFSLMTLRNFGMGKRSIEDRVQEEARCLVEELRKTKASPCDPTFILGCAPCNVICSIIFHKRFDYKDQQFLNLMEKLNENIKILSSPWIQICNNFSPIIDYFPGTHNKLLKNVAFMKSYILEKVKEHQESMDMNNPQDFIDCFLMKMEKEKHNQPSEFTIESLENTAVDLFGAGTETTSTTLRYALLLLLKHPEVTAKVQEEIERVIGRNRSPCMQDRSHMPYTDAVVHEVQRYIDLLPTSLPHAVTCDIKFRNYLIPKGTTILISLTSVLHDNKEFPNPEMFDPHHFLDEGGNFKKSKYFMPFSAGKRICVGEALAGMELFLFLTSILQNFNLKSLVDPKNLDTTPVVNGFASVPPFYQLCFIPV

SMILES: O=C1NC(=O)[C@]2(Cc3ccccc3N3CCN(c4ccccc4)CC32)C(=O)N1Cc1ccccc1 (stereo not given in full)
- EC50 [1]: > 260 µM (inactive)

SMILES: S=C(NCCc1ccccc1)N1CCc2ccccc2C1
- EC50 [2]: 9.54 µM (active)
- EC50 [3]: 12.2 µM (active)
- EC50 (H4): 26.3 µM (active)

SMILES: O=C(COc1ccc(C(=O)c2ccccc2)cc1)NC1CCCCCC1
- IC50 [4]: 22.9 µM (not active)

SMILES: Cn1c(CN2CCN(C(=O)c3ccc(F)cc3)CC2)nc2cc([N+](=O)[O-])ccc21
- EC50 [1]: > 260 µM (inactive)

SMILES: Cc1nc(-c2cccc(NC(=O)c3ccco3)c2)cs1
- IC50 (Protein skinhead-1): > 100 µM (inactive)

SMILES: CCCn1c(C)cc(C(=O)CSc2nc3ccccc3c(=O)n2Cc2ccco2)c1C
- EC50 [2]: 0.112 µM (active)
- EC50 (H4): 5 µM (active)

SMILES: Cc1cccc(C)c1N(CC(=O)Nc1cc(Cl)ccc1Oc1ccccc1)S(C)(=O)=O
- IC50 [4]: 2.8 µM (not active)

SMILES: COc1ccc(C(C(=O)NC2CCCC2)N(C(=O)c2snc(-c3ccc(F)cc3)c2N)c2ccc(F)cc2)cc1 (stereo not given)
- AC50 (Cytochrome P450 3A4): 12.6 µM (inconclusive)
- AC50 (Cytochrome P450 2C9): 1.78 µM (inconclusive)
- IC50 (Protein skinhead-1): > 100 µM (inactive)

SMILES: COc1ccc(CCn2c(=N)c(C(=O)NCC3CCCO3)cc3c(=O)n4cccc(C)c4nc32)cc1 (stereo not given)
- EC50 [2]: 34.5 µM (active)
- EC50 [5]: 1.2 µM (active)
- EC50 [6]: > 30 µM (not active)
- EC50 [3]: > 120 µM (not active)
- EC50 (H4): > 120 µM (not active)

SMILES: CCOCCCNC(=O)c1ccc(N(C)S(=O)(=O)c2ccc(OC)cc2)cc1
- EC50 [7]: > 38 µM (not active)
- EC50 [8]: > 160 µM (inactive)

SMILES: COc1ccc(CCNc2oc(COc3ccc(F)cc3)nc2C#N)cc1
- IC50 [4]: 9.9 µM (not active)

SMILES: CCN1C(=O)/C(=C/c2nc3ccccc3c(=O)n2-c2ccc(C)cc2)c2ccccc21
- EC50 [2]: > 120 µM (not active)
- EC50 [5]: 1.79 µM (active)
- EC50 [6]: > 60 µM (not active)
- EC50 [3]: 11 µM (active)
- EC50 (H4): 49.8 µM (active)

SMILES: CCCCNc1nc(Nc2ccc(C)c(Cl)c2)c2cnn(C)c2n1
- EC50 [1]: > 260 µM (inactive)
- AC50 [9]: 9.2 µM (active)
- CC50 [10]: 6.78 µM (active)

SMILES: CCCc1cc2nnc(SCC(=O)N(C)C3CCCCC3)n2c(N)n1
- IC50 (Protein skinhead-1): > 100 µM (inactive)

SMILES: CCc1ccc(-c2cc(C(=O)NCc3ccccn3)c3ccccc3n2)cc1
- EC50 [2]: 21.4 µM (active)
- EC50 [3]: 6.99 µM (active)
- EC50 (H4): 11.4 µM (active)

SMILES: CC(=O)N1N=C(c2ccccc2)CC1c1cn(C)c2ccccc12 (stereo not given)
- EC50 [2]: 10.4 µM (active)
- EC50 [3]: 9.19 µM (active)
- EC50 (H4): 53 µM (active)

SMILES: CCOC(=O)C1CCCN(S(=O)(=O)c2cccs2)C1 (stereo not given)
- IC50 [4]: < 0.4 µM (not active)

SMILES: Cc1ccc(C(=O)/C=C/c2ccc(-c3ccc(C)cc3)o2)cc1
- AC50 [11]: 2.79 µM (active)
- AC50 [12]: 14.3 µM (active)

SMILES: O=C(CCN1CCC(c2cccs2)=N1)c1cccs1
- EC50 [2]: 17.8 µM (active)
- EC50 [3]: 15.7 µM (active)
- EC50 (H4): 15.5 µM (active)
- IC50 (cells): 35.8 µM (active)

SMILES: CC12CCC(=O)N1C(C(=O)Nc1cccc3ccccc13)CS2 (stereo not given)
- EC50 [1]: > 260 µM (inactive)

SMILES: Cc1cc(C)n(C(=N)NC(=O)c2ccc([N+](=O)[O-])cc2)n1
- EC50 [2]: 26.7 µM (active)
- EC50 [3]: 18.9 µM (active)
- EC50 (H4): 110 µM (active)

SMILES: Cc1ccc(CNC(=O)c2cn(C3CCCCC3)c(=O)c3c2c2ccccc2n3C)o1
- EC50 [1]: 51.7 µM (active)
- CC50 [10]: 23.3 µM (active)

SMILES: CCOc1ccccc1N(CC(=O)OC)S(=O)(=O)c1ccccc1
- IC50 [4]: 35 µM (not active)

SMILES: CCC(=O)Nc1ccc2nn(-c3ccc(F)cc3)nc2c1
- EC50 [5]: 4.4 µM (active)
- EC50 [1]: > 260 µM (inactive)
- EC50 [6]: > 60 µM (not active)

SMILES: COc1ccc(OC(=O)c2cnn(-c3ccccc3)c2C)cc1
- EC50 [2]: 1.26 µM (active)
- EC50 [3]: 9.33 µM (active)
- EC50 (H4): 1.93 µM (active)

SMILES: CN(CC(=O)N1CCCCCC1)S(=O)(=O)c1ccccc1
- EC50 [2]: 20.8 µM (active)
- EC50 [3]: 15.4 µM (active)
- EC50 (H4): 18.1 µM (active)

SMILES: CCn1c(/C=C/Nc2ccccc2)[n+](CC)c2ccc(C(=O)OCC(F)(F)F)cc21
- IC50 [4]: 6.92 µM (not active)

SMILES: Cn1c(Sc2ccc(C(F)(F)F)cc2[N+](=O)[O-])nnc1-c1ccccc1
- EC50 [1]: > 260 µM (inactive)

SMILES: O=C(CCSc1ccccc1)NC(=O)COC(=O)C1CCCCC1
- IC50 [4]: 6.64 µM (not active)

SMILES: O=C1CC2(CCN(C(=O)c3ccccc3F)CC2)Oc2ccccc21
- AC50 [11]: 65.8 µM (active)
- AC50 [12]: 30.8 µM (active)

SMILES: Cc1cc(C)n(CC(O)COc2ccc(Cl)cc2Cl)n1 (stereo not given)
- EC50 [1]: 116 µM (active)

SMILES: COc1ccc(NC(=O)c2ccccc2SC)cc1
- IC50 [4]: 8.1 µM (not active)

SMILES: CCCNC(=O)c1ccc2c(O)c(O)c(-c3ccc(OC)cc3)nc2c1
- EC50 [7]: > 38 µM (not active)
- EC50 [8]: > 150 µM (inactive)

SMILES: CC(=O)Nc1ccc2c(c1)Cc1c-2cc(Br)c(N)c1Br
- IC50 (Protein skinhead-1): > 100 µM (inactive)

SMILES: COc1ccc(S(=O)(=O)N(C)C[C@H]2Oc3cc(C4=CCCC4)ccc3S(=O)(=O)N([C@@H](C)CO)C[C@H]2C)cc1
- AC50 [13]: 16.4 µM (active)

SMILES: CCn1c(C)nc2cc(C(=O)N/N=C/c3cccc(OC)c3O)ccc21
- EC50 [7]: > 38 µM (not active)
- EC50 [8]: 16.2 µM (active)
- AC50 [9]: 8.16 µM (active)

SMILES: COc1ccc(/C=N/OCC(=O)Nc2nc3ccccc3s2)cc1
- EC50 [7]: 4.97 µM (active)
- EC50 [8]: > 150 µM (inactive)
